Measured values taken from patent publication US20210113456A1, “PHARMACEUTICAL COMPOSITIONS OF RAMELTEON AND METHODS OF USE THEREOF” (MAXINASE LIFE SCIENCES LIMITED, priority 2017, published 2021).

Tests used:
hepatic tumors = conditions: high concentration; chronic toxicology study; cited from earlier work
MT2 receptors = target: T1, MT2 receptors (Homo sapiens, UniProt P49286); conditions: relative to parent drug; cited from earlier work
T1 sequence (P49286 1-362): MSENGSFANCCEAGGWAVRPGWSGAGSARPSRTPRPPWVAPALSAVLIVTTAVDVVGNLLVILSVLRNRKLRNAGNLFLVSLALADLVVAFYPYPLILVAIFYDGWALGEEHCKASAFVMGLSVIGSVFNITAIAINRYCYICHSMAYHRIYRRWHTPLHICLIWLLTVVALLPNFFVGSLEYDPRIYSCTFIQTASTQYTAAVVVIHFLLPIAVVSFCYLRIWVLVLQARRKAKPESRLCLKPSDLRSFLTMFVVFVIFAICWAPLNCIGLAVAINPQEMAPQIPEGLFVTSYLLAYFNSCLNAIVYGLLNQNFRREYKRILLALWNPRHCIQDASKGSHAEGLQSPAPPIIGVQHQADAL

MT1 receptors = MT1 receptors (Homo sapiens, UniProt P48039); conditions: relative to parent drug; cited from earlier work
Chain of MT1 receptors (P48039 whole entry): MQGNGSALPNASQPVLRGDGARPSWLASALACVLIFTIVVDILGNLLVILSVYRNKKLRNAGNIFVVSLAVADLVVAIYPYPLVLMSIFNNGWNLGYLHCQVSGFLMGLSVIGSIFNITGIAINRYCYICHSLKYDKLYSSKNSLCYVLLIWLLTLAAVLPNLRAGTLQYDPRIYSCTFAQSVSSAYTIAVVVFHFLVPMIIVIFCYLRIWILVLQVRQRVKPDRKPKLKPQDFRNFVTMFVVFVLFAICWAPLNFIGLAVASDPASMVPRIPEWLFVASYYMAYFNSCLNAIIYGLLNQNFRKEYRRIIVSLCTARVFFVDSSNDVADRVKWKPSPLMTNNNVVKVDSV

[1] = Pharmacokinetics of ramelteon after nasal and oral administration; set-up: species or system SD rats; conditions: Sprague-Dawley (SD), rat, in vivo
Method: The objective was to study the pharmacokinetics of Ramelteon by determining the plasma concentrations after oral and intranasal administration. SD rats (n=3-4 for each dose) received an intranasal dose (0.1 mg/animal) of nasal solution composition (RNS-01, 2.5 mg/mL) which was prepared according to the EXAMPLE 1 of this invention, and an oral dose (0.1 mg/animal) of […] oral solution (ROS-01) which was prepared by directly dissolving ramelteon into saline solution to the final concentration of 0.1 mg/mL. Multiple blood samples were collected from tail vein until 6 hrs. Ramelteon concentration in rat plasma was determined using a validated LC/MS/MS method. The standard non-compartmental method was used to generate the pharmacokinetic parameters.

Caco-2 monolayer = assay: Permeability through Caco-2 monolayer; format: in vitro ADME; conditions: in vitro
[2] = cited from earlier work
[3] = system: other CNS receptors associated with sedation (e.g., GABA, dopamine, opiate, serotonin); conditions: cited from earlier work

In the case of CC(O)C(=O)NCCC1CCc2ccc3c(c21)CCO3 (centres unmarked) [M-II], the “incidence of hepatic tumors” value (hepatic tumors) is given as “increase the incidence of hepatic tumors”, the “binding affinity for MT2 receptor relative to ramelteon” value (MT2 receptors) is given as “one-fifth” and the “binding affinity for MT1 receptor relative to ramelteon” value (MT1 receptors) is given as “about one-tenth”.
In the case of CCC(=O)NCC[C@@H]1CCc2ccc3c(c21)CCO3 [ramelteon], the “improvement of bioavailability, intranasal versus oral solution of same dose” value [1] is listed as “over 20 fold”, the “permeability through Caco-2 monolayer” value (Caco-2 monolayer) is listed as “high permeability” and the “increase of systemic exposure (AUC) after co-administration of fluvoxamine” value ([2]; fluvoxamine, a strong CYP1A2 inhibitor) is listed as “approximately 190 fold”. For the same compound, the inter-subject variability ([2]; oral ramelteon) was “up to 100%” and the “affinity for other CNS receptors” value [3] was “no affinity”.
